Here are results for three compounds from article PMC8100298, “Histone deacetylase inhibitor resminostat in combination with sorafenib counteracts platelet-mediated pro-tumoral effects in hepatocellular carcinoma” (Scientific Reports, 2021).

Read-outs that look alike come from different tables or passages of the source.

In one test the test system is PLC/PRF/5. The experiment in a line: Proliferation assay. The class given is cell-based. The settings on record: for EC50: Homo sapiens. The source says: (§1) The cell lines HepG2 (ACC180, RRID:CVCL_0027; DMSZ, Braunschweig Germany), SNU-475 (CRL-2236, Lot. 58483227, RRID:CVCL_0497; ATCC, Manassas, Virginia, US), SNU-387 (CRL-2237, Lot. 58483192, RRID:CVCL_0250; ATCC, Virginia, US), PLC/PRF/5 (300315, Lot. 812, RRID:CVCL_0485; CLS Cell Lines Service GmbH, Eppelheim, Germany) and HuH-7 (JCRB0403, Lot. 2272008, RRID:CVCL_0336; JCRB Cell Bank, Japan) were propagated according to the distributor’s guidelines. The authenticity of the cell lines was confirmed by short tandem repeat (STR) analysis (DSMZ, Braunschweig, Germany). Mycoplasma contamination was ruled out by PCR testing. For assays with platelet lysate (PL), FBS was substituted with 10% PLTMax Human Platelet Lysate (Cat. Nr. SCM141, Lot Number VP1602259; Millipore, Burlington, Massachusetts, US). The PL was supplemented with 20 U/ml Heparin (Heparin sodium salt from porcine intestinal mucosa, H4784-250MG; Sigma-Aldrich, Taufkirchen, Germany) to prevent coagulation.
(§2) Prior to the assay, the optimal seeding density was determined for each cell line to obtain an exponential growth during the experiment (2000 to 6000 cells per 96-well). Drug dilution series with 8 concentrations were prepared for EC50 determinations of single drugs. Three wells for each concentration were seeded (technical replicates). For drug combinations, dilution series of six concentrations for each drug alone or in combination at equal ratio were prepared. After 4 h of cell seeding, the drugs were added to the cells. Each 96-well plate contained a vehicle control (0.1% or 0.2% DMSO), a death control Ro 106-9920 (Tocris Cookson Ltd., Bristol, UK) a growth control (untreated cells compared to vehicle treated cells), and blank wells without cells. The proliferation assay was stopped after 4 days by crystal violet staining of the cells (0.5% in 20% methanol). Following extraction of the crystal violet with 8% acetic acid, the eluates were quantified photometrically at 570 nm and the reference wavelength 690 nm in an absorbance microplate reader (Tecan Sunrise; Tecan, Männedorf, Switzerland). Only readouts from 96-well plates with a Z-factor between 0.5 and 1.0 were used. Blank OD values were subtracted from the mean OD values. Nonlinear curve fitting and EC50 calculation was performed with Excel Solver.

The test system of another test is SNU-475. Nature of the test: Proliferation assay. The class given is cell-based. The settings on record: for EC50: Homo sapiens, read-out: EC50, anti-proliferative activity of kinase inhibitors.
Description: as §1, §2

The subject of test [1] is PLC/PRF/5 and SNU-475 cells. The experiment in a line: ELISA for growth factors PDGF-AA, TGF and VEGF. The class given is cell-based. The settings on record: tissue culture supernatants, with or without platelets (Fig. S4B). Here is the method: A. The growth factors PDGF-AA, TGFβ and VEGF were determined from tissue culture supernatants by ELISA. PLC/PRF/5 and SNU-475 cells were cultured with increasing […]
(1 picture or pasted object on this page, not shown here) […]
amounts of platelets. In parallel, platelets were cultured without cells to determine if the growth factors were platelet derived.
B. ELSIAs for PDGF-AA, TGFβ and VEGF were performed after drug treatment of PC/PRF/5 and SNU-475 cells. Cells were cultured as indicated with or without platelets and treated with resminostat, sorafenib, the drug combination or vehicle control 0.1% DMSO.
Table S1_ EC50 cell line screen
S1D. The cancer cell lines, their tissue origins and the respective EC50 values are shown.
Each cell line was seeded in duplicates.
(In an ELISA, binding on a coated surface is turned into a signal by an enzyme label.)

In a further test the test system is HuH-7. The experiment in a line: Proliferation assay. The class given is cell-based. The settings on record: for EC50: Homo sapiens, 96 h, 4 days.
Description: as §1, §2

Another test has as its system HepG2. The experiment in a line: Proliferation assay. The class given is cell-based. The settings on record: for EC50: Homo sapiens, 96 h, 4 days.
Description: as §1, §2

Another test relates to SNU-387. The experiment in a line: Proliferation assay. The class given is cell-based. The settings on record: SNU-387 vs HepG2, PLC/PRF/5, HuH-7 (Fig. 1F).
Description: as §1, §2

In test [2] the test system is Hep3B2.1-7 human hepatic carcinoma. The source says:
The orthotopic xenograft mouse model of Hep3B2.1–7 human hepatic carcinoma was previously established. Tumors were created by injection of 2.5 × 10^6 Hep3B2.1-7 cells (ATCC, RRID:CVCL_0326; Virginia, Manassas, USA) into the main lobe of the liver of anaesthetized female SCID mice (C.B-17-Igh-1bPrkdc(scid)). […] Treatments were continued for 21 days. Treatment of animals was ceased when the body weight dropped below 85% of that on entry of the study. Only mice culled at the termination date were used to determine the tumor weight. The experiment was conducted by vivoPharm pty Ltd (Bundoora, Australia) in accordance with the principles outlined in the “Australian Code of Practice for the Care and Use of Animals for Scientific Purposes”, 7th Edition, 2004 (National Health and Medical Research Council, Canberra, Australia). All procedures involving animals were reviewed and approved by the University of Adelaide Animal Ethics Committee. The study was carried out in compliance with the ARRIVE guidelines (http://www.nc3rs.org.uk/page.asp?id=1357). […]
invasion assay. The ODs of the invaded cells were normalized relative to ODs from tissue […]
Orthotopic xenograft mouse model
The orthotopic xenograft mouse model of Hep3B2.1-7 human hepatic carcinom a was previously established. The experiment was conducted by vivoPharm pty Ltd (Australia) in accordance with the principles outlined in the Australian Code of Practice for the Care and Use of Animals for Scientific Purposes, 7th Edition, 2004 (National Health and Medical Research Council). Procedures involving the care and use of animals in thi s study were reviewed and approved by the University of Adelaide Animal Ethics Committee. The study was carried out in compliance with the ARRIVE guidelines
(http://www.nc3rs.org.uk/page.asp?id=1357).
The animals were delivered to the test facility 1 1 days prior inoculation. On arrival, all animals received a detailed physical examination, including body weight measurement by the […]
technical staff. […] Each a nimal was identified by a transponder (Bar Code Data Systems Pty Ltd, Botany Bay, NSW, Australia) that could be scanned with a barcode reader (DataMars LabMax I). The transponder was implanted by subcutaneous injection between the shoulder blades while the mouse was under isoflurane-induced anaesthesia. The animals were housed in groups of six in micro-isolator cages (two cages per group). Each cage was clearly labelled with a cage card indicating study number, group, gender, and prescribed dose concentration and dose volume. The animals were kept in a controlled environment (targeted ranges: temperature 21 ± 3°C, humidity 30 -70%, 15 air changes per hour), with a light/dark cycle each of 12 hours, and under barrier (quarantine) conditions. Temperature and relative humidity were monitored continuously. All animals were subjected to the same environmental conditions. A standard certified commercial rodent diet (Rat and Mouse Cubes, Specialty Feeds Pty Ltd, Glen Forrest, WA, Australia) and tap water were provided to the animals ad libitum. Food supply was sterilized by autoclaving, and water […]
supply was sterilized by acidification with hydrochloric acid (pH 2.4-2.7) by Laboratory Animal Services, University of Adelaide (Adelaide, SA, Australia). Additional feed (a nimal seed, Magill Grain Store, Magill, SA, Australia), as well as wet standard feed was provided to all animals from Day 7 onwards, as a measure to minimize body w eight loss. The extent of adverse reaction was assessed during the study and mice were culled if severe adverse […]
The age range of the mice were 12-16 weeks at
Hep3B2.1-7 human hepatic carcinoma cells were sourced from the American Type Culture […]
Collection (ATCC; Virginia, USA).

Where [3] appears, read: PLC/PRF/5 (Fig. 6B), read-out: EC50, anti-proliferative activity of kinase inhibitors.

For `C[C@@H](Oc1cc(-c2cnn(C3CCNCC3)c2)cnc1N)c1c(Cl)ccc(F)c1Cl` [crizotinib, Crizotinib], the EC50 in the test on PLC/PRF/5 (setting [3]) and with SNU-475 (SNU-475 (Fig. 6B)) was ~5 µM in each case.
`COc1cc2nccc(Oc3ccc(NC(=O)NC4CC4)c(Cl)c3)c2cc1C(N)=O` [lenvatinib, Lenvatinib]: the EC50 (commonly the midpoint of the concentration-response curve) with PLC/PRF/5 (setting [3]) is ~17 µM; with SNU-475 (SNU-475 (Fig. 6B)), > 25 µM. For the same compound, in the test on SNU-475 (SNU-475 (Fig. 6B)), the “EC50, anti-proliferative activity of kinase inhibitors” value was “could not be determined due to a lack of efficacy”.
On to `CNC(=O)c1cc(Oc2ccc(NC(=O)Nc3ccc(Cl)c(C(F)(F)F)c3)cc2)ccn1` [sorafenib, Sorafenib], for which the “growth factors released by platelets or secreted by HCC cells” value in test [1] is “not consistantly affected”. The EC50 in the test with HuH-7 (HuH-7, fetal bovine serum, read-out: EC50 in FBS) stood at 4.4 ± 0.9 µM; in the test with HuH-7 (HuH-7, platelet lysate, absolute EC50, read-out: EC50 in PL, absolute EC50 (*)), 14 ± 2.5 µM; in the test with HepG2 (HepG2, fetal bovine serum, read-out: EC50 in FBS), 1.8 ± 0.4 µM; in the test on HepG2 (HepG2, platelet lysate, absolute EC50, read-out: EC50 in PL, absolute EC50 (*)), 11.5 ± 1.3 µM; in the test with PLC/PRF/5 (96 h, PLC/PRF/5, fetal bovine serum, 4 days, read-out: EC50 in FBS), 4.8 ± 0.6 µM; in the test on PLC/PRF/5 (96 h, PLC/PRF/5, platelet lysate, 4 days, absolute EC50, read-out: EC50 in PL, absolute EC50 (*)), 22.1 ± 2.5 µM. For the same compound, the “Ratio PL/FBS” value with HuH-7 (HuH-7, ratio of PL/FBS EC50s) turned out to be 3.2; with HepG2 (HepG2, ratio of PL/FBS EC50s) it was 6.4; in the test on PLC/PRF/5 (PLC/PRF/5, ratio of PL/FBS EC50s), 4.6. The “effect of platelet factors on potency and efficacy” value in the test on PLC/PRF/5 (PLC/PRF/5, platelet lysate vs FBS dose-response curves (Fig. 2A)) is on record as “reduced”. Besides, the maximal inhibition result in the test with PLC/PRF/5 (PLC/PRF/5, platelet lysate, at 25 µM) was “not reached”. For the same compound, the “EC50 compared to the epithelial cell lines” value is listed as “about three-fold higher” in the test with SNU-387 and “about three-fold higher” in the test with SNU-475 (SNU-475 vs HepG2, PLC/PRF/5, HuH-7 (Fig. 1F)). Besides, the “Tumour weight, Mean” value in test [2] (40 mg/kg oral once daily, 21 days, SCID mice) is given as 1.11 g. Also, in test [2] (daily resminostat 15 and 40 mg/kg, sorafenib 40 mg/kg, or combination (Fig. 1B)), the “tumor weight compared to the vehicle control” value was “significantly reduced tumor weight”.
